ChEMBL document CHEMBL1201862, “PubChem BioAssay data set” (2004)
Values joined by “and” are separate entries in the source; they are usually repeats but may differ in a detail not shown here. Equal values may be shown once.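 Growth conditions: 96-well plates. Treatment: test compound, 48 hours, 5 concentrations. Analysis: linear interpolation between bracketing concentrations; unreached endpoints set to highest concentration. Here, GI50 denotes the concentration required for 50% inhibition of growth.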 Active and inactive are the calls of the source. No stated cut-off is given here; in the data, active = GI50 up to about 1.1 µM and inactive = higher.

What was measured:
Assay in all cases: inhibition of tumour cell growth, NCI panel, 48 h
Malme-3M = system: Malme-3M
OVCAR-3 = system: OVCAR-3
DU-145 = system: DU-145
TK-10 = system: TK-10
SW-620 = system: SW-620
SK-OV-3 = system: SK-OV-3
NCI/ADR-RES = system: NCI/ADR-RES
EKVX = system: EKVX
CCRF-CEM = system: CCRF-CEM
NCI-H522 = system: NCI-H522
SF-539 = system: SF-539
UO-31 = system: UO-31
SK-MEL-2 = system: SK-MEL-2
SK-MEL-5 = system: SK-MEL-5
OVCAR-4 = system: OVCAR-4
HOP-62 = system: HOP-62
SNB-75 = system: SNB-75
NCI-H23 = system: NCI-H23
OVCAR-8 = system: OVCAR-8

Row | SMILES | GI50 (Malme-3M) | GI50 (OVCAR-3) | GI50 (DU-145) | GI50 (TK-10) | GI50 (SW-620) | GI50 (SK-OV-3) | GI50 (NCI/ADR-RES) | GI50 (EKVX) | GI50 (CCRF-CEM) | GI50 (NCI-H522) | GI50 (SF-539) | GI50 (UO-31) | GI50 (SK-MEL-2) | GI50 (SK-MEL-5) | GI50 (OVCAR-4) | GI50 (HOP-62) | GI50 (SNB-75) | GI50 (NCI-H23) | GI50 (OVCAR-8)
1 | COCCN(CCOC)C(=O)COc1c2cc(C(C)(C)C)cc1Cc1cc(C(C)(C)C)cc(c1OCC(=O)N(CCOC)CCOC)Cc1cc(C(C)(C)C)cc(c1OCC(=O)N(CCOC)CCOC)Cc1cc(C(C)(C)C)cc(c1OCC(=O)N(CCOC)CCOC)Cc1cc(C(C)(C)C)cc(c1OCC(=O)N(CCOC)CCOC)C2 | 1.85 µM (inactive) | 0.288 µM (active) | 2.81 µM (inactive) | 2.76 µM (inactive) | 0.877 µM (active) | 3.05 µM (inactive) | 10.7 µM (inactive) | 0.434 µM (active) | 0.705 µM (active) | 0.655 µM (active) | 2.34 µM (inactive) | 0.366 µM (active) | 1.02 µM (active) | 1.32 µM (inactive) | 0.467 µM (active) | 1.73 µM (inactive) | 0.0881 µM (active) | 1.19 µM (inactive) | 1.39 µM (inactive)
2 | COc1ccccc1/N=N/C(C(=O)c1ccccc1)C(=O)c1ccccc1 | 25.4 µM (inactive) | 22.5 µM (inactive) |  | 50.2 µM (inactive) | 25.1 µM (inactive) | 45.1 µM (inactive) |  | 21.4 µM (inactive) | 7.91 µM (inactive) | 16.1 µM (inactive) | 26.2 µM (inactive) | 12.8 µM (inactive) | 20.7 µM (inactive) | 18 µM (inactive) | 9.53 µM (inactive) | 15.5 µM (inactive) | 19.9 µM (inactive) | 19.2 µM (inactive) | 21.5 µM (inactive)
3 | COc1ccc2c(c1)c1c3n2CCNN=C3CCC1 | > 100 µM (inactive) | > 100 µM (inactive) |  | > 53 µM (inactive) | > 100 µM (inactive) | > 75.2 µM (inactive) |  | > 100 µM (inactive) | 56.1 µM (inactive) | 21.5 µM (inactive) | > 77.4 µM (inactive) | > 43.7 µM (inactive) | > 100 µM (inactive) | > 100 µM (inactive) | > 100 µM (inactive) | > 74.3 µM (inactive) | 48.6 µM (inactive) | > 62.8 µM (inactive) | > 81.1 µM (inactive)
4 | CC(C)NC(C)Cc1ccccc1 (centres undefined) | > 100 µM (inactive) | > 100 µM (inactive) |  | > 100 µM (inactive) | > 100 µM (inactive) | > 100 µM (inactive) |  | > 100 µM (inactive) | > 100 µM (inactive) | > 100 µM (inactive) | > 100 µM (inactive) | > 100 µM (inactive) | > 100 µM (inactive) | > 100 µM (inactive) | > 100 µM (inactive) | > 100 µM (inactive) | > 100 µM (inactive) | > 100 µM (inactive) | > 100 µM (inactive)
5 | COc1ccc(N[C@H](CSc2ccc(C)cc2)c2ccc(F)cc2)cc1 |  | > 100 µM (inactive) | > 100 µM (inactive) | > 100 µM (inactive) | > 100 µM (inactive) | > 100 µM (inactive) | > 100 µM (inactive) | > 100 µM (inactive) | > 100 µM (inactive) | 38.9 µM (inactive) | > 100 µM (inactive) | > 100 µM (inactive) | > 100 µM (inactive) | 57.3 µM (inactive) | 67.5 µM (inactive) | > 100 µM (inactive) | > 100 µM (inactive) | 39.3 µM (inactive) | > 100 µM (inactive)
6 | COC(=O)C1CCc2c1c(=O)n1c([nH]c3ccccc31)c2C#N (centres undefined) | > 100 µM (inactive) | > 100 µM (inactive) |  | > 100 µM (inactive) | > 100 µM (inactive) | > 100 µM (inactive) |  | > 100 µM (inactive) | > 100 µM (inactive) | > 100 µM (inactive) | > 100 µM (inactive) | > 100 µM (inactive) | > 100 µM (inactive) | > 100 µM (inactive) | > 100 µM (inactive) | > 100 µM (inactive) | > 100 µM (inactive) | > 100 µM (inactive) | > 100 µM (inactive)
7 | CC1OC(OC2C(OC(=O)[C@]34CCC(C)(C)C[C@H]3C3=CC[C@@H]5[C@@]6(C)CC[C@H](OC7OC(C(=O)O)C(O)C(O)C7O)C(C)(C)[C@@H]6CC[C@@]5(C)[C@]3(C)CC4)OCC(O)C2O)C(O)C(O)C1OC1OCC(O)C(O)C1O (some centres undefined) | 34.7 µM (inactive) and 28.3 µM (inactive) | > 100 µM (inactive) |  |  |  | > 100 µM (inactive) and 82.8 µM (inactive) | 93.5 µM (inactive) | 22.3 µM (inactive) and 30.1 µM (inactive) | 77.4 µM (inactive) | 45.1 µM (inactive) and 45.5 µM (inactive) |  | 16.8 µM (inactive) and 22.1 µM (inactive) | 19.4 µM (inactive) and 33.1 µM (inactive) |  | 54 µM (inactive) and 53.8 µM (inactive) |  |  | 17.7 µM (inactive) and 19.6 µM (inactive) | > 100 µM (inactive)
8 | Oc1cc(-c2ccccc2)c2ccccc2n1 | 24.9 µM (inactive) |  |  | 38.6 µM (inactive) | > 100 µM (inactive) | 20.5 µM (inactive) |  |  | 60.8 µM (inactive) | 20.9 µM (inactive) | 52.7 µM (inactive) | 15.1 µM (inactive) | 72.1 µM (inactive) | 16.6 µM (inactive) | 73.6 µM (inactive) | 28.2 µM (inactive) | 13 µM (inactive) | 84.7 µM (inactive) | > 100 µM (inactive)
9 | O=C(O)c1ccc(S(=O)(=O)c2ccccc2)c([N+](=O)[O-])c1 | > 100 µM (inactive) | > 100 µM (inactive) |  | > 100 µM (inactive) | > 100 µM (inactive) | > 100 µM (inactive) |  | > 100 µM (inactive) | > 100 µM (inactive) | > 100 µM (inactive) | > 100 µM (inactive) | > 100 µM (inactive) | > 100 µM (inactive) | > 100 µM (inactive) | > 100 µM (inactive) | > 100 µM (inactive) | > 100 µM (inactive) | > 100 µM (inactive) | 
10 | CCC(=O)N/N=C(\C=C\c1cccc(O)c1)c1sc(Nc2ccc(C)cc2[N+](=O)[O-])nc1C | > 100 µM (inactive) | 71.1 µM (inactive) |  | > 100 µM (inactive) | > 100 µM (inactive) | > 100 µM (inactive) |  | > 100 µM (inactive) | 99.1 µM (inactive) | 45.8 µM (inactive) | 32.7 µM (inactive) | > 100 µM (inactive) | > 100 µM (inactive) | > 100 µM (inactive) | 49 µM (inactive) | > 100 µM (inactive) | 14.9 µM (inactive) | 2.22 µM (inactive) | 71.3 µM (inactive)
11 | CN(C(=O)c1ccc2c(c1)sc1c(=O)n(C)c3ccccc3c12)c1ccccc1 | > 100 µM (inactive) | > 100 µM (inactive) | > 100 µM (inactive) | > 100 µM (inactive) | > 100 µM (inactive) | > 100 µM (inactive) | > 100 µM (inactive) | > 100 µM (inactive) | > 100 µM (inactive) | > 100 µM (inactive) | > 100 µM (inactive) | 37.7 µM (inactive) | > 100 µM (inactive) | > 100 µM (inactive) | > 100 µM (inactive) |  | > 100 µM (inactive) | > 100 µM (inactive) | > 100 µM (inactive)
12 | C=C=C(C)C(=O)N(C(C)C)C(C)C | > 100 µM (inactive) | > 100 µM (inactive) | > 100 µM (inactive) | > 100 µM (inactive) | > 100 µM (inactive) | > 100 µM (inactive) | > 100 µM (inactive) | > 100 µM (inactive) | > 100 µM (inactive) |  |  | > 100 µM (inactive) |  | > 100 µM (inactive) | > 100 µM (inactive) | > 100 µM (inactive) | > 100 µM (inactive) | > 100 µM (inactive) | > 100 µM (inactive)
13 | Oc1cc(C2OCCCO2)cc(O)c1O | > 100 µM (inactive) | > 100 µM (inactive) |  | > 100 µM (inactive) | > 100 µM (inactive) | > 100 µM (inactive) |  | > 100 µM (inactive) | > 100 µM (inactive) | > 100 µM (inactive) | > 100 µM (inactive) | > 100 µM (inactive) | > 100 µM (inactive) | > 100 µM (inactive) | > 100 µM (inactive) | > 100 µM (inactive) | > 100 µM (inactive) | > 100 µM (inactive) | > 100 µM (inactive)
14 | COc1ccc2cc(C(C)C(O)c3cc(F)c(F)c(F)c3F)ccc2c1 (centres undefined) | > 100 µM (inactive) | 98.6 µM (inactive) | > 100 µM (inactive) | > 100 µM (inactive) | > 100 µM (inactive) | > 100 µM (inactive) | 97.9 µM (inactive) | 45.5 µM (inactive) | > 100 µM (inactive) |  |  | 86.5 µM (inactive) |  | > 100 µM (inactive) | 70.5 µM (inactive) | 26.2 µM (inactive) | 16.3 µM (inactive) | 49.8 µM (inactive) | 65.3 µM (inactive)
15 | CCOC(=O)[C@H](CCCNC(=O)OC(C)(C)C)NCc1ccc(OC)c(OC)c1 | > 100 µM (inactive) | > 100 µM (inactive) |  | > 100 µM (inactive) | > 100 µM (inactive) | > 100 µM (inactive) |  | > 100 µM (inactive) | > 100 µM (inactive) | > 100 µM (inactive) | > 100 µM (inactive) | > 100 µM (inactive) | > 100 µM (inactive) | > 100 µM (inactive) | > 100 µM (inactive) | > 100 µM (inactive) | > 100 µM (inactive) | > 100 µM (inactive) | > 100 µM (inactive)
